Test results taken from patent publication US11459323B2, “Monocyclic β-lactam compound for treating bacterial infection” (MEDSHINE DISCOVERY INC., priority 2018, dated 2022).
Values after ≈ are worked out from the molar mass of the structure shown. Like-named read-outs stand apart in the source and are kept apart here. Marks after values point to notes of the source that are not given here.

Tests used:
[1] = tested on: K. pneumoniae ATCC BAA-205 (TEM-1/SHV-1/SHV-12); assay: MIC by micro-liquid dilution method (CLSI); assay type: cell-based, Klebsiella pneumonia; conditions: Klebsiella pneumoniae, ATCCBAA205; K. pneumoniae ATCCBAA-205; read-out: MIC
[2] = tested on: K. pneumoniae ATCC BAA-1705 (KPC-2); assay: MIC by micro-liquid dilution method (CLSI); assay type: cell-based, Klebsiella pneumonia; conditions: Klebsiella pneumoniae, ATCCBAA1705; K. pneumoniae ATCCBAA-1705; read-out: MIC
[3] = tested on: K. pneumoniae ATCC BAA-2470 (NDM-1); assay: MIC by micro-liquid dilution method (CLSI); assay type: cell-based, Klebsiella pneumonia; conditions: Klebsiella pneumoniae, ATCCBAA2470; K. pneumoniae ATCCBAA-2470; read-out: MIC
[4] = tested on: E. coli ATCC BAA-2523 (OXA-48); assay: MIC by micro-liquid dilution method (CLSI); assay type: cell-based; conditions: Escherichia coli, ATCCBAA2523; E. coli ATCCBAA-2523; read-out: MIC
Excerpt: (§1) Three strains of Klebsiella pneumonia, K. pneumoniae ATCC BAA-205 (TEM-1/SHV-1/SHV-12), K. pneumoniae ATCC BAA-1705 (KPC-2), K. pneumoniae ATCC BAA-2470 (NDM-1); three strains of Pseudomonas aeruginosa, P. aeruginosa NCTC13437 (VIM-10; VEB-1), P. aeruginosa PA 14 and P. aeruginosa ATCC 35151; four strains of Escherichia coli, E. coli NCTC 13476 (IMP-1 type), E. coli ATCC BAA-2523 (OXA-48), E. coli MG1655Δtol C, E. coli ATCC 25922; one strain of Acinetobacter baumannii, A. baumannii ATCC 17978 and one strain of Staphylococcus aureus, S. aureus NRS384 were used to determine the minimum inhibitory concentration (MIC) of the compounds by micro-liquid dilution method according to the Institute of Clinical and Laboratory Standard (CLSI) requirements.

E. coli MG1655Δtol C = assay: MIC by micro-liquid dilution method (CLSI); assay type: cell-based; conditions: Escherichia coli
Excerpt: as §1

[5] = tested on: E. coli NCTC 13476 (IMP-1 type); assay: MIC by micro-liquid dilution method (CLSI); assay type: cell-based; conditions: Escherichia coli; E. coli NCTC13476; read-out: MIC
Excerpt: as §1

P. aeruginosa PA 14 = assay: MIC by micro-liquid dilution method (CLSI); assay type: cell-based; conditions: Pseudomonas aeruginosa, PA14; P. aeruginosa PA 14; read-out: MIC
Excerpt: as §1

P. aeruginosa ATCC 35151 = assay: MIC by micro-liquid dilution method (CLSI); assay type: cell-based; conditions: Pseudomonas aeruginosa; P. aeruginosa ATCC35151; read-out: MIC
A. baumannii ATCC 17978 = assay: MIC by micro-liquid dilution method (CLSI); assay type: cell-based; conditions: Acinetobacter baumannii; A. baumannii ATCC17978; read-out: MIC
E. coli ATCC 25922 = assay: MIC by micro-liquid dilution method (CLSI); assay type: cell-based; conditions: Escherichia coli; E. coli ATCC25922; read-out: MIC
[6] = tested on: Acinetobacter baumannii ATCC 17978; assay: MIC on Acinetobacter baumannii strains; assay type: cell-based; conditions: ATCC17978
Excerpt: (§2) Twelve strains of Acinetobacter baumannii, A. baumannii ATCC 17978 (ATCC-BAA-1605, ATCC-BAA-1789, ATCC-BAA-1790, ATCC-BAA-1791, ATCC-BAA-1792, ATCC-BAA-1793, ATCC-BAA-1794, ATCC-BAA-1795, ATCC-BAA-1799, ATCC-BAA-1800, ATCC 19606, ATCC 17978) were used to determine the minimum inhibitory concentration (MIC) of the compounds by micro-liquid dilution method according to the Institute of Clinical and Laboratory Standard (CLSI) requirements.

[7] = tested on: Acinetobacter baumannii ATCC 19606; assay: MIC on Acinetobacter baumannii strains; assay type: cell-based; conditions: ATCC19606
Excerpt: as §2

[8] = tested on: Acinetobacter baumannii ATCC-BAA-1605; assay: MIC on Acinetobacter baumannii strains; assay type: cell-based; conditions: ATCCBAA1605, ATCC-BAA-1605, read-out: MIC
Excerpt: as §2

[9] = tested on: Acinetobacter baumannii ATCC-BAA-1789; assay: MIC on Acinetobacter baumannii strains; assay type: cell-based; conditions: ATCCBAA1789
Excerpt: as §2

[10] = tested on: Acinetobacter baumannii ATCC-BAA-1790; assay: MIC on Acinetobacter baumannii strains; assay type: cell-based; conditions: ATCCBAA1790, ATCC-BAA-1790, read-out: MIC
Excerpt: as §2

[11] = tested on: Acinetobacter baumannii ATCC-BAA-1791; assay: MIC on Acinetobacter baumannii strains; assay type: cell-based; conditions: ATCCBAA1791
Excerpt: as §2

[12] = tested on: Acinetobacter baumannii ATCC-BAA-1792; assay: MIC on Acinetobacter baumannii strains; assay type: cell-based; conditions: ATCCBAA1792, ATCC-BAA-1792, read-out: MIC
Excerpt: as §2

[13] = tested on: Acinetobacter baumannii ATCC-BAA-1793; assay: MIC on Acinetobacter baumannii strains; assay type: cell-based
Excerpt: as §2

[14] = tested on: Acinetobacter baumannii ATCC-BAA-1794; assay: MIC on Acinetobacter baumannii strains; assay type: cell-based; conditions: ATCCBAA1794, ATCC-BAA-1794, read-out: MIC
Excerpt: as §2

[15] = tested on: Acinetobacter baumannii ATCC-BAA-1795; assay: MIC on Acinetobacter baumannii strains; assay type: cell-based; conditions: ATCCBAA1795
Excerpt: as §2

[16] = tested on: Acinetobacter baumannii ATCC-BAA-1799; assay: MIC on Acinetobacter baumannii strains; assay type: cell-based; conditions: ATCCBAA1799, ATCC-BAA-1799, read-out: MIC
Excerpt: as §2

[17] = tested on: Acinetobacter baumannii ATCC-BAA-1800; assay: MIC on Acinetobacter baumannii strains; assay type: cell-based
Excerpt: as §2

[18] = tested on: Pseudomonas aeruginosa PA14; assay: Lungs of immunosuppressed mice infected with Pseudomonas aeruginosa (1), lung bacterial load; assay type: in vivo; conditions: 24 hours after infection, day, ip at 2 h, 4 h, 6 h, 8 h
Description: Pseudomonas aeruginosa PA14. 64 mice were intraperitoneally injected with 150 mg/kg cyclophosphamide on the first day and the fourth day to give immunosuppressed mice. […] [table] The mice were injected with 50 μL of bacterial solution (2×10^3 CFU) through the airway. 2 hours after the infection, 4 mice in the model group was sacrificed by removing cervical vertebra. Two hours after infection, the drugs were administered by groups, and the mice were administered intraperitoneally once at 2 hours, 4 hours, 6 hours, and 8 hours, a total of 4 times. Mice of each group were sacrificed by removing cervical vertebra 24 hours after infection, lung and kidney tissues were taken aseptically and put into sterilized tissue homogenate tubes, weighed, and an appropriate amount of normal saline (NS) was added, the mixture was homogenized by a homogenizer for 1 min, the lung tissues of the model group were diluted 10^4, 10^5, 10^6 times, the lung tissues of each administration group were diluted 10, 100 times, the kidney tissues of the model group were diluted 10^2, […], 10^4 times, and the lung tissues of each administration group were diluted 10 times, the obtained mixtures were coated on TSA plates using spiral coater, then incubated at 37° C. overnight, and the CFU was counted with a colony counter. Graphpad Prism mapping software was used to make scatter plots of lung tissue CFU. SPSS19.0 software was used to count CFU and average body weight, and analysis of variance was used to analyze differences between groups.

[19] = tested on: Pseudomonas aeruginosa PA14; assay: Lungs of immunosuppressed mice infected with Pseudomonas aeruginosa (2), lung bacterial load; assay type: in vivo; conditions: 24 hours after infection, total dosage 60 mg/kg, day, ip at 2 h, 4 h, 6 h, 8 h
Description: Pseudomonas aeruginosa PA14. 60 mice were intraperitoneally injected with 150 mg/kg cyclophosphamide on day 1 and day 4 to give immunosuppressed mice. […] [table] The mice were injected with 50 μL of bacterial solution (2×10^3 CFU) through the airway. 2 hours after the infection, 4 mice in the model group was sacrificed by removing cervical vertebra. Two hours after infection, the drugs were administered by groups, and the mice were administered intraperitoneally once at 2 hours, 4 hours, 6 hours, and 8 hours, a total of 4 times. Mice of each group were sacrificed by removing cervical vertebra 24 hours after infection, lung and kidney tissues were taken aseptically and put into a sterilized tissue homogenate tube, weighed, and an appropriate amount of normal saline (NS) was added, the mixture was homogenized by a homogenizer for 1 min, the lung tissues of the model group were diluted 10^4, 10^5, 10^6 times, the lung tissues of each administration group were diluted 10, 100 times, the kidney tissues of the model group were diluted 10^2, 10^3, 10^4 times, and the lung tissues of each administration group were diluted 10 times, the obtained mixtures were coated on TSA plates using spiral coater, then incubated at 37° C. overnight, and the CFU was counted with a colony counter. Graphpad Prism mapping software was used to make scatter plots of lung tissue CFU. SPSS19.0 software was used to count CFU and average body weight, and analysis of variance was used to analyze differences between groups.

[20] = ATCCBAA1793, ATCC-BAA-1793, read-out: MIC
[21] = ATCCBAA1800, ATCC-BAA-1800, read-out: MIC

Compound | MIC [1] [mg/L] | MIC [2] [mg/L] | MIC [3] [mg/L] | MIC [4] [mg/L] | MIC (E. coli MG1655Δtol C) [mg/L] | MIC [5] [mg/L] | MIC (P. aeruginosa PA 14) [mg/L] | MIC (P. aeruginosa ATCC 35151) [mg/L] | MIC (A. baumannii ATCC 17978) [mg/L] | MIC (E. coli ATCC 25922) [mg/L] | MIC [6] [mg/L] | MIC [7] [mg/L] | MIC [8] [mg/L] | MIC [9] [mg/L] | MIC [10] [mg/L] | MIC [11] [mg/L] | MIC [12] [mg/L] | MIC [14] [mg/L] | MIC [15] [mg/L] | MIC [16] [mg/L] | other results
CC1(C)[C@H](NC(=O)/C(=N\OCCOc2ccc3c(c2)CCN(CCCN)C3)c2csc(N)n2)C(=O)N1OS(=O)(=O)O [Compound 6] | 16 (≈ 26.2 µM) | 4 (≈ 6.54 µM) | 4 (≈ 6.54 µM) | 0.25 (≈ 0.409 µM) | ≤ 0.125 | 1 (≈ 1.63 µM) | 16 (≈ 26.2 µM) | 0.5 (≈ 0.817 µM) | 4 (≈ 6.54 µM) | 0.5 (≈ 0.817 µM) | 2 (≈ 3.27 µM) | 8 (≈ 13.1 µM) | 16 (≈ 26.2 µM) | 8 (≈ 13.1 µM) | 8 (≈ 13.1 µM) | 4 (≈ 6.54 µM) | 8 (≈ 13.1 µM) | 8 (≈ 13.1 µM) | 8 (≈ 13.1 µM) | 8 (≈ 13.1 µM) | MIC [13, 20]: 8 mg/L (≈ 13.1 µM); MIC [17, 21]: 8 mg/L (≈ 13.1 µM)
CC1(C)[C@H](NC(=O)/C(=N\OCCOc2ccc3c(c2)CCN(CCCNC(=N)N)C3)c2csc(N)n2)C(=O)N1OS(=O)(=O)O [Compound 7] | 8 (≈ 12.2 µM) | 4 (≈ 6.12 µM) | 2 (≈ 3.06 µM) | 0.25 (≈ 0.382 µM) | ≤ 0.125 | 1 (≈ 1.53 µM) | 16 (≈ 24.5 µM) | 0.5 (≈ 0.765 µM) | 1 (≈ 1.53 µM) | 0.5 (≈ 0.765 µM) | 2 (≈ 3.06 µM) | 8 (≈ 12.2 µM) | 8 (≈ 12.2 µM) | 8 (≈ 12.2 µM) | 8 (≈ 12.2 µM) | 2 (≈ 3.06 µM) | 8 (≈ 12.2 µM) | 4 (≈ 6.12 µM) | 4 (≈ 6.12 µM) | 8 (≈ 12.2 µM) | MIC [13, 20]: 4 mg/L (≈ 6.12 µM); MIC [17, 21]: 4 mg/L (≈ 6.12 µM)
CC1(C)[C@H](NC(=O)/C(=N\O[C@@H](COc2ccc(C(=N)N[C@@H]3CCCNC3)cc2)C(=O)O)c2csc(N)n2)C(=O)N1OS(=O)(=O)O [I-g, reference compound] |  |  |  |  |  |  |  |  |  |  |  |  |  |  |  |  |  |  |  |  | LOG10-of bacterial load ([18]; total dosage 120 mg/kg): 1.58 ± 2.45; LOG10-of bacterial load ([18]; total dosage 200 mg/kg): 0**; LOG10-of bacterial load [19]: 1.65 ± 1.39
C[C@@H](O)[C@H]1C(=O)N2C(C(=O)O)=C(SCCN=CN)C[C@H]12 [Imipenem, reference compound] |  |  |  |  |  |  |  |  |  |  | 0.25 (≈ 0.835 µM) | 0.5 (≈ 1.67 µM) | 32 (≈ 107 µM) | 16 (≈ 53.4 µM) | 64 (≈ 214 µM) | 32 (≈ 107 µM) | 64 (≈ 214 µM) | 32 (≈ 107 µM) | 1 (≈ 3.34 µM) | 64 (≈ 214 µM) | MIC ([13]; ATCCBAA1793): 128 mg/L (≈ 428 µM); MIC ([17]; ATCCBAA1800): 128 mg/L (≈ 428 µM)
